Results reported in US6479435B1, “Diaryl ethers and processes for their preparation and herbicidal and desiccant compositions containing them” (ISK Americas Incorporated, priority 1997, dated 2002).

Key:
Format in all cases: in vivo
[1] = tested on: Johnsongrass (Sorghum halepense, SORHA); test: Pre-emerge greenhouse herbicide test, phytotoxicity rating; conditions: 14 days after application, rating scale 0-100
From the text: (§1) A standard greenhouse herbicide activity screening system was used to evaluate the herbicidal efficacy and crop safety of these test compounds. Six broadleaf weed species including redroot pigweed (Amaranthus retroflexus, AMARE), velvetleaf (Abutilon theophrasti, ABUTH), sicklepod (Cassia obtusifolia, CASOB), ivyleaf morningglory (Ipomoea hederacea, IPOHE), lambsquarters (Chenopodium album, CHEAL) and common ragweed (Ambrosia artemisiifolia L., AMBEL) were used as test species. Four grass weed species including green foxtail (Setaria viridis, SETVI), barnyardgrass (Echinochloa crusgalli, ECHCG), Johnsongrass (Sorghum halepense, SORHA), and large crabgrass (Digitaria sanguinalis, DIGSA) were also used. In addition, three crop species, field corn (Zea mays L., var. Dekalb 535, CORN), soybean (Glycine max L., var. Pella 86, SOY), and upland rice (Oryza sp., var.Tebonnet, RICE) were included.
(§2) All plants were grown in 10 cm square plastic pots which were filled with a sandy loam soil mix. For preemerge tests, seeds were planted one day prior to application of the test compounds. Immediately after application, test units of the pre-emerge applications were watered at the soil surface to incorporate the test materials. Subsequently, these test units were bottom-watered.
(§3) All test compounds were dissolved in acetone and applied to the test units in a volume of 187 l/ha. Test materials were applied at rates ranging from 125 g ai/ha to 1000 g ai/ha using a track sprayer equipped with a TJ8001E even flow flat fan spray nozzle. Plants were arranged on a shelf so that the top of the canopy (post-emerge) or top of the soil surface (pre-emerge) was 40-45 cm below the nozzle. Pressurized air was used to force the test solution through the nozzle as it was mechanically advanced (via electrically driven chain drive) over the top of all test plants/pots. This application simulates a typical commercial field herbicide application.
(§4) At 14 days after application of the test materials, phytotoxicity ratings were recorded. A rating scale of 0-100 was used as previously described in Research Methods in Weed Science, 2nd edition, B. Truelove, Ed., Southern Weed Science Society, Auburn University, Auburn, Ala., 1977. Briefly, “0” corresponds to no damage and “100” corresponds to complete death of all plants in the test unit. This scale was used both to determine efficacy against weed species and damage to crop species. Herbicide activity data for various compounds of this invention, which are shown by compound number in Tables 1-9, are shown in Tables 13 and 14.

[2] = tested on: barnyardgrass (Echinochloa crusgalli, ECHCG); test: as above; conditions: 14 days after application, rating scale 0-100
From the text: as §1, §2, §3, §4

[3] = tested on: green foxtail (Setaria viridis, SETVI); test: as above; conditions: 14 days after application, rating scale 0-100
From the text: as §1, §2, §3, §4

[4] = tested on: ivyleaf morningglory (Ipomoea hederacea, IPOHE); test: as above; conditions: 14 days after application, rating scale 0-100
From the text: as §1, §2, §3, §4

[5] = tested on: lambsquarters (Chenopodium album, CHEAL); test: as above; conditions: 14 days after application, rating scale 0-100
From the text: as §1, §2, §3, §4

[6] = tested on: large crabgrass (Digitaria sanguinalis, DIGSA); test: as above; conditions: 14 days after application, rating scale 0-100
From the text: as §1, §2, §3, §4

[7] = tested on: redroot pigweed (Amaranthus retroflexus, AMARE); test: as above; conditions: 14 days after application, rating scale 0-100
From the text: as §1, §2, §3, §4

[8] = tested on: sicklepod (Cassia obtusifolia, CASOB); test: as above; conditions: 14 days after application, rating scale 0-100
From the text: as §1, §2, §3, §4

[9] = tested on: velvetleaf (Abutilon theophrasti, ABUTH); test: as above; conditions: 14 days after application, rating scale 0-100
From the text: as §1, §2, §3, §4

[10] = tested on: field corn (Zea mays L., var. Dekalb 535, CORN); test: Pre-emerge greenhouse test, crop damage rating; conditions: 14 days after application, rating scale 0-100
From the text: as §1, §2, §3, §4

[11] = tested on: upland rice (Oryza sp., var.Tebonnet, RICE); test: Pre-emerge greenhouse test, crop damage rating; conditions: 14 days after application, rating scale 0-100
From the text: as §1, §2, §3, §4

[12] = tested on: soybean (Glycine max L., var. Pella 86, SOY); test: Pre-emerge greenhouse test, crop damage rating; parameters: key to SOY crop damage rating: 0 = no damage, 100 = complete death of all plants; conditions: 14 days after application, rating scale 0-100
From the text: as §1, §2, §3, §4

[13] = tested on: Johnsongrass (Sorghum halepense, SORHA); test: Post-emerge greenhouse herbicide test, phytotoxicity rating; conditions: 14 days after application, scale 0-100
From the text: as §1, §3
(§5) In the post-emerge test, a commercial non-ionic surfactant was also included (0.25% v/v) to enhance wetting of the leaf surfaces Qf target plants at rates ranging from 63 g ai/ha to 1000 g ai/ha. For post-emerge tests, seeds were planted 8-21 days prior to the test to allow emergence and good foliage development prior to application of the test substances. At the time of the post-emerge application, plants of all species were usually at the 2-3 leaf stage of development. Post-emerge test units were always bottom-watered.
as §4

[14] = tested on: barnyardgrass (Echinochloa crusgalli, ECHCG); test: as above; conditions: 14 days after application, scale 0-100
From the text: as §1, §3, §5, §4

[15] = tested on: green foxtail (Setaria viridis, SETVI); test: as above; conditions: 14 days after application, scale 0-100
From the text: as §1, §3, §5, §4

[16] = tested on: ivyleaf morningglory (Ipomoea hederacea, IPOHE); test: as above; conditions: 14 days after application, scale 0-100
From the text: as §1, §3, §5, §4

[17] = tested on: lambsquarters (Chenopodium album, CHEAL); test: as above; conditions: 14 days after application, scale 0-100
From the text: as §1, §3, §5, §4

[18] = tested on: large crabgrass (Digitaria sanguinalis, DIGSA); test: as above; conditions: 14 days after application, scale 0-100
From the text: as §1, §3, §5, §4

[19] = tested on: redroot pigweed (Amaranthus retroflexus, AMARE); test: as above; conditions: 14 days after application, scale 0-100
From the text: as §1, §3, §5, §4

[20] = tested on: sicklepod (Cassia obtusifolia, CASOB); test: as above; conditions: 14 days after application, scale 0-100
From the text: as §1, §3, §5, §4

[21] = tested on: velvetleaf (Abutilon theophrasti, ABUTH); test: as above; conditions: 14 days after application, scale 0-100
From the text: as §1, §3, §5, §4

[22] = tested on: field corn (Zea mays L., var. Dekalb 535, CORN); test: Post-emerge greenhouse test, crop damage rating; conditions: 14 days after application, scale 0-100
From the text: as §1, §3, §5, §4

[23] = tested on: upland rice (Oryza sp., var.Tebonnet, RICE); test: Post-emerge greenhouse test, crop damage rating; conditions: 14 days after application, scale 0-100
From the text: as §1, §3, §5, §4

[24] = tested on: soybean (Glycine max L., var. Pella 86, SOY); test: Post-emerge greenhouse test, crop damage rating; parameters: key to crop damage rating SOY: 0-100 scale: 0 = no damage, 100 = complete death of all plants; conditions: 14 days after application, scale 0-100
From the text: as §1, §3, §5, §4

SMILES: Nn1c(C(F)(F)F)cc(=O)n(-c2cc(Oc3cccc(F)n3)c(Cl)cc2F)c1=O [Compound 9-4, 1-Amino-3-[4-chloro-2-fluora-5-(6-fluoro-2-pyridyloxy)phenyl]-6-trifluoromethyl-1,2,3,4-tetrahydropyrimidine-2,4-dione]
- SORHA phytotoxicity rating ([1]; Rate 125 g al/ha): 99
- SORHA phytotoxicity rating ([1]; Rate 500 g al/ha): 100
- ECHCG phytotoxicity rating ([2]; Rate 125 g al/ha): 100
- ECHCG phytotoxicity rating ([2]; Rate 500 g al/ha): 100
- SETVI phytotoxicity rating ([3]; Rate 125 g al/ha): 100
- SETVI phytotoxicity rating ([3]; Rate 500 g al/ha): 100
- IPOHE phytotoxicity rating ([4]; Rate 125 g al/ha): 100
- IPOHE phytotoxicity rating ([4]; Rate 500 g al/ha): 100
- CHEAL phytotoxicity rating ([5]; Rate 125 g al/ha): 100
- CHEAL phytotoxicity rating ([5]; Rate 500 g al/ha): 100
- DIGSA phytotoxicity rating ([6]; Rate 125 g al/ha): 100
- DIGSA phytotoxicity rating ([6]; Rate 500 g al/ha): 100
- AMARE phytotoxicity rating ([7]; Rate 125 g al/ha): 100
- AMARE phytotoxicity rating ([7]; Rate 500 g al/ha): 100
- CASOB phytotoxicity rating ([8]; Rate 125 g al/ha): 60
- CASOB phytotoxicity rating ([8]; Rate 500 g al/ha): 100
- ABUTH phytotoxicity rating ([9]; Rate 125 g al/ha): 100
- ABUTH phytotoxicity rating ([9]; Rate 500 g al/ha): 100
- CORN crop damage rating ([10]; Rate 125 g al/ha): 60
- CORN crop damage rating ([10]; Rate 500 g al/ha): 95
- RICE crop damage rating ([11]; Rate 125 g al/ha): 40
- RICE crop damage rating ([11]; Rate 500 g al/ha): 99
- SOY crop damage rating ([12]; Rate 125 g al/ha): 80
- SOY crop damage rating ([12]; Rate 500 g al/ha): 95
- phytotoxicity rating SORHA ([13]; rate 63 g ai/ha): 70
- phytotoxicity rating SORHA ([13]; rate 500 g ai/ha): 98
- phytotoxicity rating ECHCG ([14]; rate 63 g ai/ha): 70
- phytotoxicity rating ECHCG ([14]; rate 500 g ai/ha): 100
- phytotoxicity rating SETVI ([15]; rate 63 g ai/ha): 30
- phytotoxicity rating SETVI ([15]; rate 500 g ai/ha): 95
- phytotoxicity rating IPOHE ([16]; rate 63 g ai/ha): 100
- phytotoxicity rating IPOHE ([16]; rate 500 g ai/ha): 100
- phytotoxicity rating CHEAL ([17]; rate 63 g ai/ha): 80
- phytotoxicity rating CHEAL ([17]; rate 500 g ai/ha): 100
- phytotoxicity rating DIGSA ([18]; rate 63 g ai/ha): 10
- phytotoxicity rating DIGSA ([18]; rate 500 g ai/ha): 95
- phytotoxicity rating AMARE ([19]; rate 63 g ai/ha): 95
- phytotoxicity rating AMARE ([19]; rate 500 g ai/ha): 100
- phytotoxicity rating CASOB ([20]; rate 63 g ai/ha): 90
- phytotoxicity rating CASOB ([20]; rate 500 g ai/ha): 100
- phytotoxicity rating ABUTH ([21]; rate 63 g ai/ha): 100
- phytotoxicity rating ABUTH ([21]; rate 500 g ai/ha): 100
- crop damage rating CORN ([22]; rate 63 g ai/ha): 40
- crop damage rating CORN ([22]; rate 500 g ai/ha): 80
- crop damage rating RICE ([23]; rate 63 g ai/ha): 50
- crop damage rating RICE ([23]; rate 500 g ai/ha): 70
- crop damage rating SOY ([24]; rate 63 g ai/ha): 95
- crop damage rating SOY ([24]; rate 500 g ai/ha): 100
